# Assay results published in patent publication US20210030678A1, “CANNABINOID AND CBD LIPOSOME FORMULATIONS AND USES THEREOF” (Medterra Pharma, priority 2019, published 2021).
# System: circulating TNFα
# Assay: Circulating TNFα versus time post inflammatory trigger (FIG. 17)
# Format: in vivo
# Conditions: systemic inflammatory event; equal doses
# Excerpt: FIG. 17 includes a graph illustrating the relative percentage of circulating TNFα versus time post inflammatory trigger for a control, CBD and packaged CBD application.
smiles,measurement,value
"C=C(C)[C@@H]1CCC(C)=C[C@H]1c1c(O)cc(CCCCC)cc1O [CBD, Cannabidiol]",effect on relative concentration of circulating TNFα,able to quell a systemic inflammatory event
